The supplement of paper PMC10307832

Columns and labels:
Experiment in all cases: relative viability (nuclei count vs DMSO), 5 days (fraction); higher = more cells survive
Crenolanib + Trametinib = compound: CC1(COc2ccc3c(c2)ncn3-c2ccc3cccc(N4CCC(N)CC4)c3n2)COC1 [Crenolanib] + CC(=O)Nc1cccc(-n2c(=O)n(C3CC3)c(=O)c3c(Nc4ccc(I)cc4F)n(C)c(=O)c(C)c32)c1 [Trametinib] (partner 0.02 µM)
Outline: (§1)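 Five library-drug doses in √10 steps were combined with a fixed anchor-drug dose, or a single drug was given alone, by pin tool to lung cancer cell lines in 1536-well plates the day after seeding. Nuclei were stained and counted after 5 days. Relative viability is the nuclei count in treated wells over that in vehicle wells, taken as the median of duplicate plates.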

Tivantinib = compound: O=C1NC(=O)[C@@H](c2cn3c4c(cccc24)CCC3)[C@@H]1c1c[nH]c2ccccc12 [Tivantinib]
Outline: (§2)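 Five library-drug doses, separated by factors of √10, were pinned into 1536-well plates holding lung cancer cell lines after an overnight stay at 37 °C. Cells were fixed, permeabilised and Hoechst-stained in one step after 5 days without medium change, then imaged at 4×. Viability compares treated-well with vehicle-well nuclei, counted in MetaXpress, as a median across plates. Passing plates had control CV below 25% and at least one doubling.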

Crenolanib = compound: CC1(COc2ccc3c(c2)ncn3-c2ccc3cccc(N4CCC(N)CC4)c3n2)COC1 [Crenolanib]
Outline: as §2

Tivantinib + Navitoclax = compound: O=C1NC(=O)[C@@H](c2cn3c4c(cccc24)CCC3)[C@@H]1c1c[nH]c2ccccc12 [Tivantinib] + CC1(C)CCC(c2ccc(Cl)cc2)=C(CN2CCN(c3ccc(C(=O)NS(=O)(=O)c4ccc(N[C@H](CCN5CCOCC5)CSc5ccccc5)c(S(=O)(=O)C(F)(F)F)c4)cc3)CC2)C1 [Navitoclax] (partner 0.5 µM)
Outline: as §1

Cell Line | relative viability (Crenolanib + Trametinib; first compound 0.01 µM) | relative viability (Crenolanib + Trametinib; first compound 0.03162 µM) | relative viability (Crenolanib + Trametinib; first compound 0.1 µM) | relative viability (Crenolanib + Trametinib; first compound 0.3162 µM) | relative viability (Crenolanib + Trametinib; first compound 1 µM) | relative viability (Tivantinib; 0.01 µM) | relative viability (Tivantinib; 0.03162 µM) | relative viability (Tivantinib; 0.1 µM) | relative viability (Tivantinib; 0.3162 µM) | relative viability (Crenolanib; 0.01 µM) | relative viability (Crenolanib; 0.03162 µM) | relative viability (Crenolanib; 0.1 µM) | relative viability (Crenolanib; 0.3162 µM) | relative viability (Crenolanib; 1 µM) | relative viability (Tivantinib + Navitoclax; first compound 0.01 µM) | relative viability (Tivantinib + Navitoclax; first compound 0.03162 µM) | relative viability (Tivantinib + Navitoclax; first compound 0.1 µM) | relative viability (Tivantinib + Navitoclax; first compound 0.3162 µM)
NCI-H2342 | 0.502 | 0.822 | 0.935 | 0.887 | 0.904 | 1.1 | 0.983 | 0.934 | 0.815 | 1.07 | 0.844 | 0.924 | 1.09 | 0.968 | – | – | – | –
SK-MES-1 | 0.583 | 0.549 | 0.55 | 0.548 | 0.487 | 1.06 | 0.912 | 0.91 | 0.915 | 1.05 | 1.01 | 0.973 | 1.06 | 0.936 | 1.24 | 1.17 | 1.1 | 0.896
EPLC-272H | 0.307 | 0.299 | 0.283 | 0.326 | 0.277 | 1.05 | 0.88 | 0.851 | 0.455 | 0.905 | 0.893 | 0.838 | 1.04 | 1.11 | 1.12 | 1.27 | 1.05 | 1.01
HCC-44 | 1.05 | 1.1 | 1.03 | 1.11 | 0.945 | 1.02 | 1.03 | 1.02 | 0.908 | 1.04 | 0.965 | 0.994 | 0.986 | 0.806 | 0.971 | 0.935 | 1.06 | 0.872
201T | 0.703 | 0.703 | 0.688 | 0.722 | 0.745 | 0.966 | 0.938 | 0.924 | 1.01 | 0.97 | 0.983 | 0.972 | 0.988 | 1.01 | 1.12 | 1.17 | 1.17 | 1.18
HOP-62 | 0.43 | 0.372 | 0.368 | 0.379 | 0.37 | 0.975 | 0.787 | 0.972 | 1.02 | 0.986 | 1.02 | 0.977 | 1.1 | 0.933 | 0.9 | 0.859 | 1.07 | 1.02
NCI-H650 | 1.01 | 1.01 | 0.976 | 1.05 | 0.992 | 0.98 | 0.671 | 0.896 | 0.943 | 0.999 | 0.798 | 0.963 | 0.868 | 0.887 | – | – | – | –
NCI-H2085 | – | 0.571 | 0.549 | 0.51 | 0.554 | 1.03 | 0.981 | 0.974 | 0.905 | 1 | 1.01 | 0.948 | 0.997 | 0.978 | 1.18 | 1.28 | 1.2 | 0.939
NCI-H596 | 0.823 | 0.842 | 0.753 | 0.729 | 0.75 | 1.08 | 0.826 | 0.92 | 1.01 | 0.912 | 1.04 | 0.948 | 0.946 | 0.972 | 1.07 | 1.02 | 0.948 | 0.73
SK-LU-1 | 0.465 | 0.517 | 0.351 | 0.491 | 0.512 | 1.08 | 1.08 | 0.987 | 1.01 | 1.03 | 1.04 | 0.755 | 1.08 | 1.04 | 0.864 | 0.783 | 0.941 | 0.733
A-427 | 0.831 | – | 0.755 | 0.818 | 0.747 | 0.959 | 0.978 | 0.976 | 1.02 | 0.953 | 0.969 | 0.976 | 0.948 | 0.927 | 0.893 | 0.882 | 0.924 | 0.951
NCI-H460 | 0.13 | 0.169 | 0.151 | 0.17 | 0.133 | 0.986 | 0.971 | 0.98 | 0.999 | 1 | 0.998 | 0.975 | 0.995 | 0.956 | 1.06 | 1.02 | 0.988 | 1.13
NCI-H1734 | 0.768 | 0.725 | 0.682 | 0.806 | 0.765 | 0.946 | 0.878 | 1.08 | 1.01 | 0.947 | 1.02 | 0.988 | 1.02 | 0.916 | 0.849 | 0.86 | 0.802 | 0.896
NCI-H1915 | 0.29 | 0.324 | 0.289 | 0.304 | 0.275 | 0.986 | 0.912 | 0.977 | 1.06 | 0.969 | 1 | 1.02 | 1.01 | 0.779 | 0.789 | 0.796 | 0.771 | 0.798
Calu-6 | – | – | – | – | – | 0.989 | 1.03 | 0.977 | 0.989 | 1.1 | 0.992 | 0.978 | 1.08 | 0.959 | 0.866 | 0.996 | 0.807 | 0.716
SW 1573 | 0.661 | 0.607 | 0.55 | 0.726 | 0.579 | 1.02 | 0.866 | 0.981 | 0.958 | 1.01 | 1.01 | 0.955 | 1.01 | 0.986 | 1.02 | 0.917 | 1.06 | 1.14
RERF-LC-KJ | 0.882 | 0.855 | 0.896 | 0.901 | 0.926 | 1.01 | 1.03 | 0.996 | 0.763 | 1.04 | 1.01 | 1 | 1.06 | 1.02 | 0.901 | 1.05 | 0.818 | 0.829
EMC-BAC-2 | 0.905 | – | 0.893 | 0.937 | 0.799 | 1.01 | 0.962 | 0.997 | 0.998 | 1.08 | – | 0.994 | 1.13 | 0.84 | 1.14 | 1.12 | 1.18 | 1.05

Cell Line | relative viability (Crenolanib + Trametinib; first compound 0.01 µM) | relative viability (Crenolanib + Trametinib; first compound 0.03162 µM) | relative viability (Crenolanib + Trametinib; first compound 0.1 µM) | relative viability (Crenolanib + Trametinib; first compound 0.3162 µM) | relative viability (Crenolanib + Trametinib; first compound 1 µM) | relative viability (Tivantinib; 0.01 µM) | relative viability (Tivantinib; 0.03162 µM) | relative viability (Tivantinib; 0.1 µM) | relative viability (Tivantinib; 0.3162 µM) | relative viability (Crenolanib; 0.01 µM) | relative viability (Crenolanib; 0.03162 µM) | relative viability (Crenolanib; 0.1 µM) | relative viability (Crenolanib; 0.3162 µM) | relative viability (Crenolanib; 1 µM) | relative viability (Tivantinib + Navitoclax; first compound 0.01 µM) | relative viability (Tivantinib + Navitoclax; first compound 0.03162 µM) | relative viability (Tivantinib + Navitoclax; first compound 0.1 µM) | relative viability (Tivantinib + Navitoclax; first compound 0.3162 µM)
LK-2 | 0.987 | 0.747 | 0.859 | 0.899 | 0.727 | 1.04 | – | 0.892 | 0.89 | 0.981 | 1.04 | 0.979 | 1.14 | 0.898 | 0.913 | – | 0.705 | 0.83
NCI-H2228 | 0.442 | 0.544 | 0.342 | 0.551 | 0.5 | 1.03 | 0.893 | 0.931 | 0.815 | 0.944 | 1 | 0.871 | 1.11 | 1.1 | 1.15 | 0.71 | 0.837 | 1.01
NCI-H322M | 0.515 | 0.516 | 0.488 | 0.525 | 0.609 | 0.958 | 0.865 | 0.928 | – | 0.936 | 0.911 | 0.953 | 0.811 | 0.912 | 1.11 | 1.06 | 1.14 | 1.16
NCI-H1299 | – | – | – | – | – | 0.998 | 0.986 | 0.998 | 1.03 | 1.01 | 0.995 | 0.982 | 1.02 | 0.997 | 1.01 | 0.998 | 1.06 | 1.05
ABC-1 | – | – | – | – | – | 0.887 | 0.98 | 0.821 | 0.805 | 1.08 | 0.876 | 0.855 | 0.985 | 0.795 | – | – | – | –
NCI-H661 | 0.57 | 0.55 | 0.528 | 0.603 | 0.494 | 1.07 | 0.971 | 0.956 | 0.811 | 0.962 | 1 | 1.02 | 1.04 | 1.01 | – | – | – | –
LCLC-103H | 0.686 | 0.643 | 0.651 | 0.692 | 0.667 | 0.895 | 0.842 | 0.963 | 0.951 | 1.01 | 1.01 | 0.892 | 0.983 | 0.92 | – | – | – | –
IA-LM | – | – | – | – | – | 0.956 | 0.897 | 0.864 | 0.978 | 1.1 | 0.888 | 0.852 | 1.07 | 1.1 | 0.973 | 0.792 | 0.743 | 0.795
NCI-H1563 | – | – | – | – | – | 1.03 | 0.988 | 0.841 | 0.822 | 1.02 | 0.877 | 1 | 0.952 | 0.928 | – | – | – | –
NCI-H1703 | – | – | – | – | – | 1.22 | 0.923 | 0.895 | 0.795 | 0.948 | 0.759 | 0.534 | 0.313 | 0.21 | 1.51 | 1.29 | 1.19 | 0.833
NCI-H1648 | 0.541 | – | 0.469 | 0.457 | 0.514 | 0.818 | 0.863 | 0.984 | 0.323 | 0.878 | 0.605 | 0.871 | 0.865 | 1.07 | – | – | – | –
A549 | – | – | – | – | – | 0.993 | 0.979 | 0.793 | 0.992 | 1.05 | 0.977 | 0.959 | 1.12 | 0.949 | 1.28 | 1.15 | 1.19 | 1.2
NCI-H522 | 0.766 | 0.615 | 0.841 | 0.631 | 0.638 | 0.943 | 0.71 | 0.839 | 0.741 | 0.938 | 0.881 | 1.03 | 0.869 | 0.95 | – | – | – | –
NCI-H1623 | – | – | – | – | – | 0.978 | 0.961 | 0.911 | – | 1.08 | 0.968 | 0.876 | 1.01 | 0.94 | – | – | – | –
SW 900 | 0.797 | – | 0.75 | 0.784 | 1.18 | 1.05 | 0.709 | 0.928 | 0.878 | 0.813 | 0.851 | 1.06 | 0.86 | 0.645 | – | – | – | –
NCI-H358 | 0.169 | 0.11 | 0.166 | 0.133 | 0.112 | 0.94 | 0.909 | 0.865 | 0.355 | 1.03 | 1.04 | 0.856 | 0.924 | 0.672 | – | – | – | –
EBC-1 | – | – | – | – | – | 1.05 | 0.859 | 0.933 | 0.994 | 1.06 | 0.961 | 0.989 | 1.03 | 1.03 | 0.505 | 0.46 | 0.414 | 0.293
